Experimental data as given in US9682141B2, “Combination of kinase inhibitors and uses thereof” (INTELLIKINE LLC, priority 2011, dated 2017).
pIC50: −log10 of the molar value. Where two headings read alike, the source gives them in different places.

Key:
Format in all cases: biochemical
mTORC = mTORC (Homo sapiens (Human), UniProt P42345); test: mTOR inhibition assay (radiometric or LanthaScreen TR-FRET)
PI3K α = PI3K α (Homo sapiens (Human), UniProt P42336); test: PI 3-Kinase (human) HTRF assay, p110α/p85α
PI3K γ = PI3K γ (Homo sapiens (Human), UniProt P48736); test: PI 3-Kinase (human) HTRF assay, p110γ
PI3K β = PI3K β (Homo sapiens (Human), UniProt P42338); test: PI 3-Kinase (human) HTRF assay, p110β/p85α
[1] = PI 3-Kinase (human) HTRF assay, p110δ/p85α; details: read-out: PI3K γ IC50
PI3K δ = PI3K δ (Homo sapiens (Human), UniProt O00329); test: PI 3-Kinase (human) HTRF assay, p110δ/p85α
PI3K δ, sequence (O00329 whole entry): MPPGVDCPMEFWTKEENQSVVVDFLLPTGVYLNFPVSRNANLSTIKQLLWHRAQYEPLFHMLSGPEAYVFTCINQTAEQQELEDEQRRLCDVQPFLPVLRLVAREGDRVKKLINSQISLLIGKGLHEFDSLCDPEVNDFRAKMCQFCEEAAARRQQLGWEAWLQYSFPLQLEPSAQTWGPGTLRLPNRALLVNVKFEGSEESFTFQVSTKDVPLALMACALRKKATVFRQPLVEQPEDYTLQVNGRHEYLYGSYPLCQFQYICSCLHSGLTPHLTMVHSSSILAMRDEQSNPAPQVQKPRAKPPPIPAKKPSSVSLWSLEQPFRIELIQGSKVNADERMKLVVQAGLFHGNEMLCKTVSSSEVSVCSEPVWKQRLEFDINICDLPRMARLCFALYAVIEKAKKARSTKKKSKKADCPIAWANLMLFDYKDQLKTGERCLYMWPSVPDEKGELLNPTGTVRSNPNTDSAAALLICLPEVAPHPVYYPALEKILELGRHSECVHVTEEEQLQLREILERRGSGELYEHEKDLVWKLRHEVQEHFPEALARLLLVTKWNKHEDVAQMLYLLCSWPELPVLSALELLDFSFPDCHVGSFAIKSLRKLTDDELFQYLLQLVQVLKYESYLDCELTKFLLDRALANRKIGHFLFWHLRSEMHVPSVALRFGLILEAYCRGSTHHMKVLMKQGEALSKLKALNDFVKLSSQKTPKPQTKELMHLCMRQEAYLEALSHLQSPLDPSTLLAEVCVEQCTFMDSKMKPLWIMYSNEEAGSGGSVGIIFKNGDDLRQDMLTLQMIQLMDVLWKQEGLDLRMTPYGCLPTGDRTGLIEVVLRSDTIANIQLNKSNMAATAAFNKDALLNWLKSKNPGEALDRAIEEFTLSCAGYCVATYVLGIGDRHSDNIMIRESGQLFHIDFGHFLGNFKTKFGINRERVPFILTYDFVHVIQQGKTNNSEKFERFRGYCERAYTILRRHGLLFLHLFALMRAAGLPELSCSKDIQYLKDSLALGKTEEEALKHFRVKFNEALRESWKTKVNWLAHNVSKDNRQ
PI3K δ, sequence (P27986 whole entry partner): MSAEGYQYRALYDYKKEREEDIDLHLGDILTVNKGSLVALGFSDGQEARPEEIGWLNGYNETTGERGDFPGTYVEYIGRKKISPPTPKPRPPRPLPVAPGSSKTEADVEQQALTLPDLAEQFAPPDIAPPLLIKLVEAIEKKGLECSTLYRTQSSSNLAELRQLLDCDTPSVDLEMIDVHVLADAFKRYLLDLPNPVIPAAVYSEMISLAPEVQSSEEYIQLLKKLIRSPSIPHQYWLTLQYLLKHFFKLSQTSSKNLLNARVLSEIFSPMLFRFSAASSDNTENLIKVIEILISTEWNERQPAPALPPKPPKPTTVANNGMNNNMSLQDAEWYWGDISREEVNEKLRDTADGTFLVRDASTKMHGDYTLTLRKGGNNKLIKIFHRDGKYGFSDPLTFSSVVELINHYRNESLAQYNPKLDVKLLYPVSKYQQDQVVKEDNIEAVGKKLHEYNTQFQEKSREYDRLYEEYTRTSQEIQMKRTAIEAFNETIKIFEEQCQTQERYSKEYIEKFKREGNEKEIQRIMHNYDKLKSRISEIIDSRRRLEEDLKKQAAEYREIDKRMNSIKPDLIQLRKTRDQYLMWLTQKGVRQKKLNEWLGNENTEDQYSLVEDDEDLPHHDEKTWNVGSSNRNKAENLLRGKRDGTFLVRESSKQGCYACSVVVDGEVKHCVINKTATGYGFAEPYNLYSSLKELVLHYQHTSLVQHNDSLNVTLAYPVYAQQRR

mTORC, sequence (P42345 1360-2549): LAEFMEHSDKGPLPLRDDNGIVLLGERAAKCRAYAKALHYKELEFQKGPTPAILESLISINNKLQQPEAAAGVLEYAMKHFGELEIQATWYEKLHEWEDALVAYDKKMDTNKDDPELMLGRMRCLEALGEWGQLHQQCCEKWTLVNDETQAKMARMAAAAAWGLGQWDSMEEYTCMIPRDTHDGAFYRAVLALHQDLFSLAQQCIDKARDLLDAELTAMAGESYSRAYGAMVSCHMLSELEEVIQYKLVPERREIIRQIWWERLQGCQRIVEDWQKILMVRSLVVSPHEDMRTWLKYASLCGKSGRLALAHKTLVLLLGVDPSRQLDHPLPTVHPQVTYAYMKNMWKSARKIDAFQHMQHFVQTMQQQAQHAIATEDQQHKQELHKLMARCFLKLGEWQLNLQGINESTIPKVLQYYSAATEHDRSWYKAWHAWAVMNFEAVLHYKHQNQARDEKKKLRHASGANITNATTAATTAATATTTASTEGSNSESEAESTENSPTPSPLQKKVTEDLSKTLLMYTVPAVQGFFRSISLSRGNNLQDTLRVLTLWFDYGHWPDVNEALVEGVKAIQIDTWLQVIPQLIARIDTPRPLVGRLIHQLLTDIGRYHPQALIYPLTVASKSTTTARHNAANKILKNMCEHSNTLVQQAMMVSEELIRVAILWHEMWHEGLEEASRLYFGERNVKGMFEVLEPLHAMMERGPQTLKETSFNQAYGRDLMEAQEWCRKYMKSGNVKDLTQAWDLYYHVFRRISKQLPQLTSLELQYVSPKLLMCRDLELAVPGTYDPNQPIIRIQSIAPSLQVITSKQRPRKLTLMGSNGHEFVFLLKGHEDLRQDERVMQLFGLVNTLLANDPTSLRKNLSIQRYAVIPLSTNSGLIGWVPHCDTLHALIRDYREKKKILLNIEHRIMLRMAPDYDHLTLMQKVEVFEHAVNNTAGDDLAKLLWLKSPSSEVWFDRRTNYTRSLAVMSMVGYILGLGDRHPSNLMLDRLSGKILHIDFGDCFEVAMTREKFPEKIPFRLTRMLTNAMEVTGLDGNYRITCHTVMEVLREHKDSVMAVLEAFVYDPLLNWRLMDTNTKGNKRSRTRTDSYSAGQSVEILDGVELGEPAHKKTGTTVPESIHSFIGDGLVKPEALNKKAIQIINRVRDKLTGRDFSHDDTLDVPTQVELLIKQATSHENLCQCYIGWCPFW
PI3K α, sequence (P42336 whole entry): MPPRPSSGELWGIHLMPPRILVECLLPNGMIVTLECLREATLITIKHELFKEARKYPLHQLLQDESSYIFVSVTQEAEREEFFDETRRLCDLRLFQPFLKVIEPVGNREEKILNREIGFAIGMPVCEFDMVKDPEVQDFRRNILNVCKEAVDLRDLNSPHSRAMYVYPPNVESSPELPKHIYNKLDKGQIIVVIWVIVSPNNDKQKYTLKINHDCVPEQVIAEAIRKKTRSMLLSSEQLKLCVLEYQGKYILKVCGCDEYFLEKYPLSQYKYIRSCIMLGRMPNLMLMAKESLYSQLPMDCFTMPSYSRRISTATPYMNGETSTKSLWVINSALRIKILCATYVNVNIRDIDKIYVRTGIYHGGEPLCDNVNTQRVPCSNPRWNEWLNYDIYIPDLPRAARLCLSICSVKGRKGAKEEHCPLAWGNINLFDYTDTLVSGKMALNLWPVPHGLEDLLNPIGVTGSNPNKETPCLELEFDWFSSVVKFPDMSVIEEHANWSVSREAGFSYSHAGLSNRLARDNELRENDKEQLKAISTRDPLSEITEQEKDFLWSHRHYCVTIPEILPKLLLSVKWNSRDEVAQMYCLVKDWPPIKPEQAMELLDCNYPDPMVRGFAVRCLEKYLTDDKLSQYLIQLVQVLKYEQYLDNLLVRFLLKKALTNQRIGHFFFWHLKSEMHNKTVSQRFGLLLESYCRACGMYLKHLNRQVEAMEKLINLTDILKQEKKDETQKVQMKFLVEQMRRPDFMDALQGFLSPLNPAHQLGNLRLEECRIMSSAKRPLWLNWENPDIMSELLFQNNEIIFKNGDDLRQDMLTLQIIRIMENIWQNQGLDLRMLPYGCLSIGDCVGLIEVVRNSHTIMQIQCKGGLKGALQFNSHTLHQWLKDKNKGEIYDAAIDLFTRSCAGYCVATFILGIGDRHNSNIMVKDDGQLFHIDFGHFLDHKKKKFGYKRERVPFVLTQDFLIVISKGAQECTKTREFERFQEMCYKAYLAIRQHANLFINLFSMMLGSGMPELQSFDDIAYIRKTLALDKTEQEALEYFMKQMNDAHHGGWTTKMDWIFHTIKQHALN
PI3K α, sequence (P27986 whole entry partner): as the sequence (P27986 whole entry partner) above

pIC50 (PI3K α)	pIC50 (PI3K γ; read-out: PI3K γ IC50)	pIC50 (PI3K β)	pIC50 (PI3K δ)	SMILES	pIC50 (mTORC)	pIC50 (PI3K γ; read-out: PI3K δ IC50)	pIC50 [1]
> 6.00	> 5.00	> 7.00	> 5.00	C[C@H]1CN(c2cnc3ccc(-c4ccc5oc(N)nc5c4)nc3n2)CCN1			
> 7.00	> 6.00	> 6.00	> 6.00	CCOC(=O)N1CCN(c2cnc3ccc(-c4ccc5oc(N)nc5c4)nc3n2)CC1			
< 5.00	< 5.00	< 5.00	< 5.00	Nc1nc2cc(-c3ccc4nc(N5CCOCC5)cnc4n3)ccc2o1			
> 7.00	> 6.00	< 5.00	> 5.00	CS(=O)(=O)N1CCN(C2CN(c3cnc4ccc(-c5ccc6oc(N)nc6c5)nc4n3)C2)CC1			
> 7.00	> 7.00	> 5.00	> 5.00	CCOC(=O)N1CC=C(c2cnc3ccc(-c4ccc5oc(N)nc5c4)nc3n2)CC1			
> 7.00	> 7.00	> 5.00	< 5.00	Nc1nc2cc(-c3ccc4ncc(C5=CCOCC5)nc4n3)ccc2o1			
> 7.00	> 7.00	< 5.00	< 5.00	Nc1nc2cc(-c3ccc4ncc(N5CCC(F)(F)CC5)nc4n3)ccc2o1			
> 7.00	> 7.00	> 5.00	> 5.00	C[C@@H]1COCCN1c1cnc2ccc(-c3ccc4oc(N)nc4c3)nc2n1			
> 7.00	> 7.00	> 5.00	< 5.00	C[C@H]1COCCN1c1cnc2ccc(-c3ccc4oc(N)nc4c3)nc2n1			
> 6.00	> 5.00	< 5.00	< 5.00	CC1(C)CN(C2CN(c3cnc4ccc(-c5ccc6oc(N)nc6c5)nc4n3)C2)CCO1			
> 6.00	> 5.00	< 5.00	< 5.00	CC1CN(C2CN(c3cnc4ccc(-c5ccc6oc(N)nc6c5)nc4n3)C2)CCO1 (centres unmarked)			
> 6.00	> 5.00	< 5.00	< 5.00	Nc1nc2cc(-c3ccc4ncc(N5CC(N6CC7CCC(C6)O7)C5)nc4n3)ccc2o1			
> 7.00	< 5.00	< 5.00	> 5.00	C[C@H]1CN(C2CN(c3cnc4ccc(-c5ccc6oc(N)nc6c5)nc4n3)C2)CCN1C			
> 6.00	> 6.00	< 5.00	> 5.00	CCN(CC)c1cnc2ccc(-c3ccc4oc(N)nc4c3)nc2n1			
> 7.00	> 6.00	< 5.00	< 5.00	Nc1nc2cc(-c3ccc4ncc(N5CC6CCC(C5)O6)nc4n3)ccc2o1			
> 7.00	> 7.00	> 6.00	> 5.00	Nc1nc2cc(-c3ccc4ncc(N5CCNC(=O)C5)nc4n3)ccc2o1			
> 7.00	> 7.00	> 7.00	> 7.00	C[C@H](N)C(=O)N1CCN(c2cnc3ccc(-c4ccc5oc(N)nc5c4)nc3n2)CC1			
> 7.00	> 6.00	> 5.00	> 5.00	C[C@@H](N)C(=O)N1CCN(c2cnc3ccc(-c4ccc5oc(N)nc5c4)nc3n2)CC1			
> 7.00	> 6.00	> 6.00	> 5.00	CC(C)N1CCN(c2cnc3ccc(-c4ccc5oc(N)nc5c4)nc3n2)CC1			
> 7.00	> 5.00	> 5.00	> 5.00	NCC(=O)N1CCN(c2cnc3ccc(-c4ccc5oc(N)nc5c4)nc3n2)CC1			
> 6.00	< 5.00	< 5.00	< 5.00	Nc1nc2cc(-c3ccc4ncc(N5CC(N6CCNCC6)C5)nc4n3)ccc2o1			
> 7.00	> 7.00	> 5.00	< 5.00	Nc1nc2cc(-c3ccc4ncc(N5CCC(O)CC5)nc4n3)ccc2o1			
> 5.00	> 5.00	< 5.00	< 5.00	Nc1nc2cc(-c3cnc4ccc(N5CCOCC5)nc4c3)ccc2o1			
> 5.00	< 5.00	< 5.00	< 5.00	CC(C)N1CCN(C2CN(c3cnc4ccc(-c5ccc6oc(N)nc6c5)nc4n3)C2)CC1			
> 5.00	< 5.00	> 5.00	< 5.00	CN1CCN(c2ccc3ncc(-c4ccc5oc(N)nc5c4)cc3n2)CC1			
> 5.00	> 5.00	< 5.00	< 5.00	CC(C)(N)C(=O)N1CCN(c2ccc3ncc(-c4ccc5oc(N)nc5c4)cc3n2)CC1			

More lines, now with the values behind:

SMILES	pIC50 (PI3K α)	pIC50 (PI3K γ; read-out: PI3K γ IC50)	pIC50 (PI3K β)	pIC50 (PI3K δ)	pIC50 (mTORC)	pIC50 (PI3K γ; read-out: PI3K δ IC50)	pIC50 [1]
CN1CCN(c2cnc3ccc(-c4ccc5oc(N)nc5c4)cc3n2)CC1	> 7.00	> 6.00	> 7.00		< 5.00		
N#Cc1cnc2ccc(-c3ccc4oc(N)nc4c3)cc2c1Cl					> 6.00		
Nc1nc2cc(-c3ccc4ncc(C(=O)N[C@H]5CC[C@H](O)CC5)n4c3)ccc2o1		> 7.00	> 5.00		< 5.00		
Nc1nc2cc(-c3ccc4nc(N)sc4c3)ccc2o1	> 6.00		> 6.00		> 5.00	> 6.00	> 5.00
Nc1ncc(-c2ccc3oc(N)nc3c2)cn1	< 5.00		< 5.00		< 5.00	> 5.00	< 5.00
CC(=O)Nc1cn2cc(-c3ccc4oc(N)nc4c3)ccc2n1	> 7.00		> 6.00		> 6.00	> 7.00	> 7.00
CC(=O)Nc1ncc(-c2ccc3oc(N)nc3c2)s1	> 5.00		< 5.00		> 5.00	> 5.00	> 5.00
Nc1nc2cc(-c3cccc4[nH]nc(N)c34)ccc2o1	< 5.00		< 5.00		< 5.00	< 5.00	
CC(C)Oc1nc(-c2ccc3oc(N)nc3c2)cnc1N	> 5.00		> 5.00		> 6.00	> 5.00	
Nc1nc2cc(-c3ccc4oc(N)nc4c3)ccc2o1	> 6.00				> 5.00	> 7.00	> 5.00
Nc1nc2cc(-c3ccc4nc(N)oc4c3)ccc2o1	> 6.00				> 5.00	> 7.00	> 6.00
C[C@@H]1CN(C2CN(c3cnc4ccc(-c5ccc6oc(N)nc6c5)nc4n3)C2)CCN1	> 7.00	< 5.00	< 5.00		< 5.00		
Nc1nc2cc(-c3ccc4ncc(-c5cccnc5)cc4n3)ccc2o1	> 7.00	> 7.00	> 5.00	> 5.00			
C[C@@H]1CN(c2cnc3ccc(-c4ccc5oc(N)nc5c4)nc3c2)CCN1	> 7.00	> 5.00	> 6.00		< 5.00		
Nc1nc2cc(-c3cnc4ccc(N5C6CCC5COC6)nc4c3)ccc2o1	> 5.00	> 5.00	< 5.00	< 5.00			
Nc1ncnc2ccc(-c3ccc4nccc(-c5ccncc5)c4c3)cc12 [Compound 8]	> 5.00	> 6.00	< 5.00		< 5.00		
Nc1ncc2cc(-c3ccc4nccc(-c5ccncc5)c4c3)ccc2n1 [Compound 9]	> 6.00	> 6.00	> 5.00		< 5.00		
Nc1nsc2ccc(-c3ccc4nccc(-c5ccncc5)c4c3)cc12 [Compound 12]	< 5.00	< 5.00	< 5.00	< 5.00			
Nc1nsc2cc(-c3ccc4nccc(-c5ccncc5)c4c3)ccc12 [Compound 13]	> 7.00	> 6.00	> 6.00	> 6.00			
Nc1nc2cc(-c3cc4nccc(-c5ccncc5)c4s3)ccc2o1 [Compound 14]	> 5.00	> 5.00	< 5.00	< 5.00			
Nc1noc2cc(-c3ccc4nccc(-c5ccncc5)c4c3)ccc12 [Compound 16]	> 7.00	> 6.00	> 5.00	> 5.00			
Nc1noc2ccc(-c3ccc4nccc(-c5ccncc5)c4c3)cc12 [Compound 18]	> 5.00	> 5.00	< 5.00	< 5.00			
CC(=O)Nc1cn2cc(-c3ccc4nccc(-c5ccncc5)c4c3)ccc2n1 [Compound 19]	< 5.00	< 5.00	< 5.00	< 5.00			
CN1CCN(c2ccnc3ccc(-c4ccc5oc(N)nc5c4)cc23)CC1 [Compound 21]	> 6.00	> 5.00	> 5.00	> 5.00			
CN1CCN(c2ncnc3ccc(-c4ccc5oc(N)nc5c4)cc23)CC1 [Compound 23]	> 7.00	> 7.00	> 6.00	> 5.00			
Nc1nc2cc(-c3ccc4ncnc(NC5CCOCC5)c4c3)ccc2o1 [Compound 24]	> 7.00	> 7.00	> 6.00	> 7.00			
Nc1nc2cc(-c3c[nH]c4nccc(-c5ccncc5)c34)ccc2o1 [Compound 25]	> 5.00	> 5.00	< 5.00	< 5.00			
Nc1nc2cc(-c3ccc4ncn(C5CCOCC5)c4c3)ccc2o1 [Compound 48]	> 5.00	< 5.00	< 5.00	< 5.00			
Nc1nc2cc(-c3ccc4ncc(-c5ccc(N6CCOCC6)nc5)n4c3)ccc2o1 [Compound 51]	> 7.00	> 6.00	> 6.00	> 6.00			
Nc1nc2cc(-c3ccc4ncc(N5CCOCC5)n4c3)ccc2o1 [Compound 53]	> 5.00	< 5.00	< 5.00	< 5.00			
